Molecular target: T1, human PTH1 receptor (Homo sapiens, UniProt Q03431)
T1 sequence (Q03431 27-593): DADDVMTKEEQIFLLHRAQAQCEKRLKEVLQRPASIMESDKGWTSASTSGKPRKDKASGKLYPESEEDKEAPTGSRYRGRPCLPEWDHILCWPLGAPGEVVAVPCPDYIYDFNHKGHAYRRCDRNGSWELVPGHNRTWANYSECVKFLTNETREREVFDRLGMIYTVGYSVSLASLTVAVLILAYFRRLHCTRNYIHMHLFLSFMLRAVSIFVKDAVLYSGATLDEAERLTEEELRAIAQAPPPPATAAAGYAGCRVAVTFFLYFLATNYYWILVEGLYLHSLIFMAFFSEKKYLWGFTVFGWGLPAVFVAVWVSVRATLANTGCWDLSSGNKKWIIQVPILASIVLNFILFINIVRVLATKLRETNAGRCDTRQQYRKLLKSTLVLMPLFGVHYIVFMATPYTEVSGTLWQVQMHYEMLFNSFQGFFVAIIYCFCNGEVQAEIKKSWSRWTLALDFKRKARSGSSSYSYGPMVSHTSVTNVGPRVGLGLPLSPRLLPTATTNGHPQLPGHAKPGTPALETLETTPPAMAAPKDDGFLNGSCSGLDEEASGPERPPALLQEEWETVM
Assay: In vitro cAMP signal activity in HKRK-B7 cells (LLC-PK1 cells overexpressing the human PTH1 receptor)
Assay type: cell-based
Settings: HKRK-B7 cells; compound at 1×10^−3 M; cAMP produced as percentage of that produced by hPTH(1-34) at 100 nM

Compound	cAMP production activity (%)
Cc1cc(NCCN(C)C)ccc1/C=C/S(=O)(=O)N1CCC2(CC1)N=C(C1CCCCC1)NC2=O [Compound 497, 2-cyclohexyl-8-{(E)-2-[4-(2-dimethylamino-ethylamino)-2-methyl-phenyl]-ethenesulfonyl}-1,3,8-triaza-spiro[4.5]dec-1-en-4-one]	38%
CC(=O)NCCNC(=O)CNc1ccc(/C=C/S(=O)(=O)N2CCC3(CC2)N=C(C2CCCCC2)NC3=O)c(C(F)(F)F)c1 [Compound 498, N-(2-acetylamino-ethyl)-2-{4-[(E)-2-(2-cyclohexyl-4-oxo-1,3,8-triaza-spiro[4.5]dec-1-ene-8-sulfonyl)-vinyl]-3-trifluoromethyl-phenylamino}-acetamide]	53%
O=C1NC(C2CCCCC2)=NC12CCN(S(=O)(=O)/C=C/c1cc3nc[nH]c3cc1C(F)(F)F)CC2 [Compound 499, 2-cyclohexyl-8-[(E)-2-(6-trifluoromethyl-1H-benzimidazol-5-yl)-ethenesulfonyl]-1,3,8-triaza-spiro[4.5]dec-1-en-4-one]	40%
CC1(C)OC[C@H](Cn2ccc3c(/C=C/S(=O)(=O)N4CCC5(CC4)N=C(C4CCCCC4)NC5=O)c(F)ccc32)O1 [Compound 500, 2-cyclohexyl-8-{(E)-2-[1-((S)-2,2-dimethyl-[1,3]dioxolan-4-ylmethyl)-5-fluoro-1H-indol-4-yl]-ethenesulfonyl}-1,3,8-triaza-spiro[4.5]dec-1-en-4-one]	61%
CN(CCO)c1ccc(/C=C/S(=O)(=O)N2CCC3(CC2)N=C(C2CCCCC2)NC3=O)c(C(F)(F)F)c1 [Compound 501, 2-cyclohexyl-8-((E)-2-{4-[(2-hydroxy-ethyl)-methyl-amino]-2-trifluoromethyl-phenyl}-ethenesulfonyl)-1,3,8-triaza-spiro[4.5]dec-1-en-4-one]	59%
Cc1cc(C(=O)N2CCS(=O)(=O)CC2)ccc1/C=C/S(=O)(=O)N1CCC2(CC1)N=C(C1CCCCC1)NC2=O [Compound 502, 2-cyclohexyl-8-{(E)-2-[4-(1,1-dioxo-1λ^6-thiomorpholine-4-carbonyl)-2-methyl-phenyl]-ethenesulfonyl}-1,3,8-triaza-spiro[4.5]dec-1-en-4-one]	14%
Cc1cc(S(=O)(=O)NCCN(C)C)ccc1/C=C/S(=O)(=O)N1CCC2(CC1)N=C(C1CCCCC1)NC2=O [Compound 503, 4-[(E)-2-(2-cyclohexyl-4-oxo-1,3,8-triaza-spiro[4.5]dec-1-ene-8-sulfonyl)-vinyl]-N-(2-dimethylamino-ethyl)-3-methyl-benzenesulfonamide]	67%
Cc1cc(N2C(=O)CNC2=O)ccc1/C=C/S(=O)(=O)N1CCC2(CC1)N=C(C1CCC(C)CC1)NC2=O (stereo not shown) [Compound 504, 3-(3-methyl-4-{(E)-2-[2-(4-methyl-cyclohexyl)-4-oxo-1,3,8-triaza-spiro[4.5]dec-1-ene-8-sulfonyl]-vinyl}-phenyl)-imidazolidine-2,4-dione]	60%
Cc1cc(N2C(=O)CN(C)C2=O)ccc1/C=C/S(=O)(=O)N1CCC2(CC1)N=C(C1CCC(C)CC1)NC2=O (stereo not shown) [Compound 505, 1-methyl-3-(3-methyl-4-{(E)-2-[2-(4-methyl-cyclohexyl)-4-oxo-1,3,8-triaza-spiro[4.5]dec-1-ene-8-sulfonyl]-vinyl}-phenyl)-imidazolidine-2,4-dione]	61%

Other lines, results leading:

cAMP production activity (%)	Compound
83%	CC(=O)Nc1ccc(/C=C/S(=O)(=O)N2CCC3(CC2)N=C(C2CCC(C)CC2)NC3=O)c(OC(C)C)c1 (stereo not shown) [Compound 506, N-(3-isopropoxy-4-{(E)-2-[2-(4-methyl-cyclohexyl)-4-oxo-1,3,8-triaza-spiro[4.5]dec-1-ene-8-sulfonyl]-vinyl}-phenyl)-acetamide]
43%	Cc1cc(N2C(=O)NC(C)(C)C2=O)cc(C)c1/C=C/S(=O)(=O)N1CCC2(CC1)N=C(C1CCC(C)CC1)NC2=O (stereo not shown) [Compound 507, 3-(3,5-dimethyl-4-{(E)-2-[2-(4-methyl-cyclohexyl)-4-oxo-1,3,8-triaza-spiro[4.5]dec-1-ene-8-sulfonyl]-vinyl}-phenyl)-5,5-dimethyl-imidazolidine-2,4-dione]
24%	Cc1cc(N2C(=O)N(C)C(C)(C)C2=O)cc(C)c1/C=C/S(=O)(=O)N1CCC2(CC1)N=C(C1CCC(C)CC1)NC2=O (stereo not shown) [Compound 508, 3-(3,5-dimethyl-4-{(E)-2-[2-(4-methyl-cyclohexyl)-4-oxo-1,3,8-triaza-spiro[4.5]dec-1-ene-8-sulfonyl]-vinyl}-phenyl)-1,5,5-trimethyl-imidazolidine-2,4-dione]
70%	CCOc1cc(NC(C)=O)ccc1/C=C/S(=O)(=O)N1CCC2(CC1)N=C(C1CCC(C)CC1)NC2=O (stereo not shown) [Compound 509, N-(3-ethoxy-4-{(E)-2-[2-(4-methyl-cyclohexyl)-4-oxo-1,3,8-triaza-spiro[4.5]dec-1-ene-8-sulfonyl]-vinyl}-phenyl)-acetamide]
57%	CCc1cc(NC(C)=O)ccc1/C=C/S(=O)(=O)N1CCC2(CC1)N=C(C1CCC(C)CC1)NC2=O (stereo not shown) [Compound 510, N-(3-ethyl-4-{(E)-2-[2-(4-methyl-cyclohexyl)-4-oxo-1,3,8-triaza-spiro[4.5]dec-1-ene-8-sulfonyl]-vinyl}-phenyl)-acetamide]
29%	Cc1cc(N2C(=O)NC(C)(C)C2=O)ccc1/C=C/S(=O)(=O)N1CCC2(CC1)N=C(C1CCC(C)CC1)NC2=O (stereo not shown) [Compound 511, 5,5-dimethyl-3-(3-methyl-4-{(E)-2-[2-(4-methyl-cyclohexyl)-4-oxo-1,3,8-triaza-spiro[4.5]dec-1-ene-8-sulfonyl]-vinyl}-phenyl)-imidazolidine-2,4-dione]
49%	COCc1cc(NC(C)=O)ccc1/C=C/S(=O)(=O)N1CCC2(CC1)N=C(C1CCC(C)CC1)NC2=O (stereo not shown) [Compound 512, N-(3-methoxymethyl-4-{(E)-2-[2-(4-methyl-cyclohexyl)-4-oxo-1,3,8-triaza-spiro[4.5]dec-1-ene-8-sulfonyl]-vinyl}-phenyl)-acetamide]
33%	Cc1cc(N2CCOC2=O)ccc1/C=C/S(=O)(=O)N1CCC2(CC1)N=C(C1CCC(C)CC1)NC2=O (stereo not shown) [Compound 513, 2-(4-methyl-cyclohexyl)-8-{(E)-2-[2-methyl-4-(2-oxo-oxazolidin-3-yl)-phenyl]-ethenesulfonyl}-1,3,8-triaza-spiro[4.5]dec-1-en-4-one]
75%	COCCN(C(C)=O)c1cc(C)c(/C=C/S(=O)(=O)N2CCC3(CC2)N=C(C2CCC(C)CC2)NC3=O)c(C)c1 (stereo not shown) [Compound 514, N-(3,5-dimethyl-4-{(E)-2-[2-(4-methyl-cyclohexyl)-4-oxo-1,3,8-triaza-spiro[4.5]dec-1-ene-8-sulfonyl]-vinyl}-phenyl)-N-(2-methoxy-ethyl)-acetamide]
113%	Cc1cc(N2CCOCC2=O)cc(C)c1/C=C/S(=O)(=O)N1CCC2(CC1)N=C(C1CCC(C)CC1)NC2=O (stereo not shown) [Compound 515, 8-{(E)-2-[2,6-dimethyl-4-(3-oxo-morpholin-4-yl)-phenyl]-ethenesulfonyl}-2-(4-methyl-cyclohexyl)-1,3,8-triaza-spiro[4.5]dec-1-en-4-one]

— patent US9169254B2, “Spiroimidazolone derivative” (Chugai Seiyaku Kabushiki Kaisha, priority 2009, dated 2015)
